Reference: patent US20090311217A1, “3-SUBSTITUTED-1H-INDOLE COMPOUNDS, THEIR USE AS MTOR KINASE AND PI3 KINASE INHIBITORS, AND THEIR SYNTHESES” (priority 2008, published 2009)

How the values were obtained:
Assay type in all cases: biochemical
PI3K-alpha = PI3K-alpha (Homo sapiens, UniProt P42336); experiment: PI3K-alpha fluorescence polarization assay; conditions: read-out: PI3Kα Avg. IC50
PI3K-gamma = PI3K-gamma (Homo sapiens, UniProt P48736); experiment: PI3K-gamma fluorescence polarization assay; conditions: PI3Kγ Avg. IC50
Chain of PI3K-gamma (P48736 whole entry, species assumed, the tested form may be a part): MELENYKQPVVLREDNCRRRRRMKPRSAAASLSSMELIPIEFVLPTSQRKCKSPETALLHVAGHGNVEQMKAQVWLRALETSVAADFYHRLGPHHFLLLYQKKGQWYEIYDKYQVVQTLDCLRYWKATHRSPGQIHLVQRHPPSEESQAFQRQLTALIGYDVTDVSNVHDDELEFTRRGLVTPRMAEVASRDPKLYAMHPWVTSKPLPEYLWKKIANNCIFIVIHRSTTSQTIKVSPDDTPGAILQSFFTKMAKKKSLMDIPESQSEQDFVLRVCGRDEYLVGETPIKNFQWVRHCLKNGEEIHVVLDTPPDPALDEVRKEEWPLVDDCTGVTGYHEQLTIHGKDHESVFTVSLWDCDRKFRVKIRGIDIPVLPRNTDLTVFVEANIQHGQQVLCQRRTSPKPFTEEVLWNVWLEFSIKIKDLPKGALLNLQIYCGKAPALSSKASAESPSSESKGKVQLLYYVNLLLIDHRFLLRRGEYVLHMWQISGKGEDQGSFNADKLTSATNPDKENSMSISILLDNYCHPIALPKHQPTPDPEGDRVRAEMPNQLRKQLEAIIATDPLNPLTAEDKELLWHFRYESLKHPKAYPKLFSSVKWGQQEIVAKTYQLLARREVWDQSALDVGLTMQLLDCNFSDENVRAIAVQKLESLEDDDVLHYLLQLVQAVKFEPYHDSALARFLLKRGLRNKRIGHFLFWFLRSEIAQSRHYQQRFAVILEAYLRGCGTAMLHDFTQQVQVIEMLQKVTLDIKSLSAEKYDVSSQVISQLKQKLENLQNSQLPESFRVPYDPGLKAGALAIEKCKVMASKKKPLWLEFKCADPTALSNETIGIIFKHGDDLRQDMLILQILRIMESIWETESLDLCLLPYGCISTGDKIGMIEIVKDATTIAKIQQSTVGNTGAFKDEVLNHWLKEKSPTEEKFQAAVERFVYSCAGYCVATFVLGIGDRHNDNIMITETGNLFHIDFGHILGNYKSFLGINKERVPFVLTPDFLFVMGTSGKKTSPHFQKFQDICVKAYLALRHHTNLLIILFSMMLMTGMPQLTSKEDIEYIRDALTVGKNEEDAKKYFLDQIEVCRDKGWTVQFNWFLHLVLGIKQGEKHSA
Procedure, shortened: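 Reactions in 5 mM HEPES pH 7, 2.5 mM MgCl2, 25 μM ATP with 2.5 μM diC8-PI(4,5)P2 and 5 ng enzyme, 1 h at 25° C, then EDTA quench. Product detected by FP using GST-GRP1 PH domain (100 nM) and BODIPY-TMR-IP4 tracer (5 nM); final DMSO 0.8%.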

human TOR = target: T1, human TOR (Homo sapiens, UniProt P42345); experiment: mTOR enzyme assay (DELFIA, His6-S6K substrate); conditions: read-out: mTOR Kinase Avg. IC50
T1 construct: FLAG

Chain of PI3K-alpha (P42336 whole entry, species assumed): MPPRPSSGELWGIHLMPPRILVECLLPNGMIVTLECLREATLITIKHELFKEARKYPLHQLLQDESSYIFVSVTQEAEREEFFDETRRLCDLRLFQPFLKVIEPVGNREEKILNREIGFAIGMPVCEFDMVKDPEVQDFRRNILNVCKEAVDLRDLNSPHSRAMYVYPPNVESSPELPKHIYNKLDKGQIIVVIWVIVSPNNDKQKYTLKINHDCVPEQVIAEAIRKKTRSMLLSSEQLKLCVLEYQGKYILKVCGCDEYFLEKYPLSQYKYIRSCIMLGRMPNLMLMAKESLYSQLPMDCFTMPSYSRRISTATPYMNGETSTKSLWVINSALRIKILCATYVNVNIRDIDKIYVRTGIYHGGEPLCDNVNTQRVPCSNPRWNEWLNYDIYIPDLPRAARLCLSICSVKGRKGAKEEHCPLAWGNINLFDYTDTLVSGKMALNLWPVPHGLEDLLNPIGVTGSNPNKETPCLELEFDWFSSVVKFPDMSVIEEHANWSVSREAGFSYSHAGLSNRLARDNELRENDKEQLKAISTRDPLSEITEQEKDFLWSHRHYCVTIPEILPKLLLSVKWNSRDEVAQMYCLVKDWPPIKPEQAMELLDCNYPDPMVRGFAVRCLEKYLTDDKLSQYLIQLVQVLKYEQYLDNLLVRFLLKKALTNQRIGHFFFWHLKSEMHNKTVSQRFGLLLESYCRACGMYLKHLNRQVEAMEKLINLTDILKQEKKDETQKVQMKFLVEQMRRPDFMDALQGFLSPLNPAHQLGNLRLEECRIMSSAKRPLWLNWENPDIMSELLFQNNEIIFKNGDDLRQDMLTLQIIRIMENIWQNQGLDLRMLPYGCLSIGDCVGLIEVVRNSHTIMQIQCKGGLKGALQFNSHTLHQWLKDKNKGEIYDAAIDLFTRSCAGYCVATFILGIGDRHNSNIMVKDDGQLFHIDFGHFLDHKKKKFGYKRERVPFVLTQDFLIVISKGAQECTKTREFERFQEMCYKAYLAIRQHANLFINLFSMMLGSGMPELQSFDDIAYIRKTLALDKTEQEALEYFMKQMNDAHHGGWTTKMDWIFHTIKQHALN
Chain of PI3K-alpha (P27986 whole entry partner, species assumed): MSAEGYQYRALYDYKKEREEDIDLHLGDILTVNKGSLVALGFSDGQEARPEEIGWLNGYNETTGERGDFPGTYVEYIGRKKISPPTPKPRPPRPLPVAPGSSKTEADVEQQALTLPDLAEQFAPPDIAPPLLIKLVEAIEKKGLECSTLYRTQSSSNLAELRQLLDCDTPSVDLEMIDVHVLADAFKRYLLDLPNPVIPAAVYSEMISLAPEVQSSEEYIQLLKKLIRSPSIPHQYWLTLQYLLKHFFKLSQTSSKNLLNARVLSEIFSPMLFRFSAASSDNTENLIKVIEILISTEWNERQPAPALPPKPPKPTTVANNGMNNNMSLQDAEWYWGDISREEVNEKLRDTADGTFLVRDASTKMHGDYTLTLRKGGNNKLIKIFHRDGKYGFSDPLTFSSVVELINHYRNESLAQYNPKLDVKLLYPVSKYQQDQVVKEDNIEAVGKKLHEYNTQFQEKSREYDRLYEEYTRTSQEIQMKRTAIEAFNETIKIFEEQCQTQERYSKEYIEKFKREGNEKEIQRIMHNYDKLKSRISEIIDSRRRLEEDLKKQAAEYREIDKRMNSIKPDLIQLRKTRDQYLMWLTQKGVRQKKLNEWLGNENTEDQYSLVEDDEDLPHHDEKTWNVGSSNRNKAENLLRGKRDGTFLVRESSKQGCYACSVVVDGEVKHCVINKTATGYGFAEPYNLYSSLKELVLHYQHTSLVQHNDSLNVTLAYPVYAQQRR

IC50 (PI3K-alpha) [nM]	IC50 (PI3K-gamma) [nM]	IC50 (human TOR) [nM]	SMILES
1040	> 10000	> 20000	Cn1cc(C=C2Oc3cc(O)cc(O)c3C2=O)c2cc(Br)ccc21 [Example 248, 2-[(5-bromo-1-methyl-1H-indol-3-yl)methylene]-4,6-dihydroxy-1-benzofuran-3(2H)-one]
180	2240	12000	N#CCCCn1cc(C=C2Oc3cc(O)cc(O)c3C2=O)c2c(O)cccc21 [Example 257, 4-{3-[(4,6-dihydroxy-3-oxo-1-benzofuran-2(3H)-ylidene)methyl]-4-hydroxy-1H-indol-1-yl}butanenitrile]
1640	2210	1060	O=C1C(=Cc2c[nH]c3cccc(-c4ccccc4)c23)Oc2cc(O)cc(O)c21 [Example 269, 4,6-dihydroxy-2-[(4-phenyl-1H-indol-3-yl)methylene]-1-benzofuran-3(2H)-one]
2860	9500	132	Cn1cc(/C=C2\Oc3cc(O)cc(O)c3C2=O)c2c(-c3ccc(-c4ccc(CN)cc4)cc3)cccc21 [Example 300, (2Z)-2-({4-[4′-(Aminomethyl)biphenyl-4-yl]-1-methyl-1H-indol-3-yl}methylene)-4,6-dihydroxy-1-benzofuran-3(2H)-one]
1230	2310	125	CN(C)Cc1ccc(-c2ccc(-c3cccc4c3c(/C=C3\Oc5cc(O)cc(O)c5C3=O)cn4C)cc2)cc1 [Example 301, (2Z)-2-[(4-{4′-[(Dimethylamino)methyl]biphenyl-4-yl}-1-methyl-1H-indol-3-yl)methylene]-4,6-dihydroxy-1-benzofuran-3(2H)-one]
1650	1080	3500	O=C1/C(=C/c2c[nH]c3cccc(-c4ccc(F)cc4)c23)Oc2cc(O)cc(O)c21 [Example 363, (2Z)-2-{[4-(4-fluorophenyl)-1H-indol-3-yl]methylene}-4,6-dihydroxy-1-benzofuran-3(2H)-one]
698	1280	123	Cn1cc(/C=C2\Oc3cc(O)cc(O)c3C2=O)c2c(-c3ccc(F)cc3)cccc21 [Example 364, (2Z)-2-{[4-(4-Fluorophenyl)-1-methyl-1H-indol-3-yl]methylene}-4,6-dihydroxy-1-benzofuran-3(2H)-one]
437	1960	104	Cn1cc(/C=C2\Oc3cc(O)cc(O)c3C2=O)c2c(-c3cccc(F)c3)cccc21 [Example 365, (2Z)-2-{[4-(3-Fluorophenyl)-1-methyl-1H-indol-3-yl]methylene}-4,6-dihydroxy-1-benzofuran-3(2H)-one]
1090	3930	75.5	Cn1cc(/C=C2\Oc3cc(O)cc(O)c3C2=O)c2c(-c3ccccc3F)cccc21 [Example 366, (2Z)-2-{[4-(2-Fluorophenyl)-1-methyl-1H-indol-3-yl]methylene}-4,6-dihydroxy-1-benzofuran-3(2H)-one]
1440	5420	500	Cn1cc(/C=C2\Oc3cc(O)cc(O)c3C2=O)c2c(-c3cccc(C#N)c3)cccc21 [Example 367, 3-{3-[(Z)-(4,6-Dihydroxy-3-oxo-1-benzofuran-2(3H)-ylidene)methyl]-1-methyl-1H-indol-4-yl}benzonitrile]
1000	4570	44.5	Cn1cc(/C=C2\Oc3cc(O)cc(O)c3C2=O)c2c(-c3ccc(C#N)cc3)cccc21 [Example 368, 4-{3-[(Z)-(4,6-Dihydroxy-3-oxo-1-benzofuran-2(3H)-ylidene)methyl]-1-methyl-1H-indol-4-yl}benzonitrile]
1070	3000	14	Cn1cc(/C=C2\Oc3cc(O)cc(O)c3C2=O)c2c(-c3ccc(N)cc3)cccc21 [Example 370, (2Z)-2-{[4-(4-Aminophenyl)-1-methyl-1H-indol-3-yl]methylene}-4,6-dihydroxy-1-benzofuran-3(2H)-one]
1010	763	730	COc1ccc(-c2cccc3[nH]cc(/C=C4\Oc5cc(O)cc(O)c5C4=O)c23)cc1 [Example 371, (2Z)-4,6-dihydroxy-2-{[4-(4-methoxyphenyl)-1H-indol-3-yl]methylene}benzofuran-3(2H)-one]
738	3000	26	CC(=O)c1ccc(-c2cccc3c2c(/C=C2\Oc4cc(O)cc(O)c4C2=O)cn3C)cc1 [Example 372, (2Z)-2-{[4-(4-Acetylphenyl)-1-methyl-1H-indol-3-yl]methylene}-4,6-dihydroxy-1-benzofuran-3(2H)-one]
4770	> 10000	300	Cn1cc(/C=C2\Oc3cc(O)cc(O)c3C2=O)c2c(-c3ccncc3)cccc21 [Example 373, (2Z)-4,6-Dihydroxy-2-[(1-methyl-4-pyridin-4-yl-1H-indol-3-yl)methylene]-1-benzofuran-3(2H)-one]
2610	4200	110	Cn1cc(/C=C2\Oc3cc(O)cc(O)c3C2=O)c2c(-c3ccsc3)cccc21 [Example 374, (2Z)-4,6-Dihydroxy-2-{[1-methyl-4-(3-thienyl)-1H-indol-3-yl]methylene}-1-benzofuran-3(2H)-one]

Further lines, the compound ahead of its results:

SMILES	IC50 (PI3K-alpha) [nM]	IC50 (PI3K-gamma) [nM]	IC50 (human TOR) [nM]
COc1ccc2c(c1)c(/C=C1\Oc3cc(O)cc(O)c3C1=O)c(C(=O)N(C)C)n2CCN1CCC(O)CC1 [Example 311, 3-[(Z)-(4,6-Dihydroxy-3-oxo-1-benzofuran-2(3H)-ylidene)methyl]-1-[2-(4-hydroxypiperidin-1-yl)ethyl]-5-methoxy-N,N-dimethyl-1H-indole-2-carboxamide]	8	144	88.5
COc1ccc2c(c1)c(/C=C1\Oc3cc(O)cc(O)c3C1=O)cn2CCn1ccnc1 [Example 312, (2Z)-4,6-Dihydroxy-2-({1-[2-(1H-imidazol-1-yl)ethyl]-5-methoxy-1H-indol-3-yl}methylene)-1-benzofuran-3(2H)-one]	9.5	81.5	152
COc1ccc2c(c1)c(/C=C1\Oc3cc(O)cc(O)c3C1=O)c(C1CC1)n2CCO [Example 313, (2Z)-2-{[2-Cyclopropyl-1-(2-hydroxyethyl)-5-methoxy-1H-indol-3-yl]methylene}-4,6-dihydroxy-1-benzofuran-3(2H)-one]	3	16.5	0.53
COc1ccc2c(c1)c(/C=C1\Oc3cc(O)cc(O)c3C1=O)c(C(=O)N(C)C)n2CCn1ccnc1 [Example 314, 3-[(Z)-(4,6-Dihydroxy-3-oxo-1-benzofuran-2(3H)-ylidene)methyl]-1-[2-(1H-imidazol-1-yl)ethyl]-5-methoxy-N,N-dimethyl-1H-indole-2-carboxamide]	29	116	155
COc1ccc2c(c1)c(/C=C1\Oc3cc(O)cc(O)c3C1=O)c(C1CC1)n2CCN1CCC(O)CC1 [Example 315, (2Z)-2-({2-Cyclopropyl-1-[2-(4-hydroxypiperidin-1-yl)ethyl]-5-methoxy-1H-indol-3-yl}methylene)-4,6-dihydroxy-1-benzofuran-3(2H)-one]	3	26.5	4.2
COc1ccc2c(c1)c(/C=C1\Oc3cc(O)cc(O)c3C1=O)c(C)n2CC(=O)N(C)C [Example 322, 2-{3-[(Z)-(4,6-Dihydroxy-3-oxo-1-benzofuran-2(3H)-ylidene)methyl]-5-methoxy-2-methyl-1H-indol-1-yl}-N,N-dimethylacetamide]	39.8	178	23
COc1ccc2c(c1)c(/C=C1\Oc3cc(O)ccc3C1=O)cn2CCCN(C)C [Example 324, (2Z)-2-({1-[3-(Dimethylamino)propyl]-5-methoxy-1H-indol-3-yl}methylene)-6-hydroxy-1-benzofuran-3(2H)-one]	91.5	656	365
COc1ccc2c(c1)c(/C=C1\Oc3cc(O)cc(O)c3C1=O)c(C(=O)N(C)C)n2CC(=O)N(C)C [Example 325, 3-[(Z)-(4,6-Dihydroxy-3-oxo-1-benzofuran-2(3H)-ylidene)methyl]-1-[2-(dimethylamino)-2-oxoethyl]-5-methoxy-N,N-dimethyl-1H-indole-2-carboxamide]	281	298	84
COc1ccc2c(c1)c(/C=C1\Oc3c(ccc(O)c3C)C1=O)c(C)n2CCN1CCN(C)CC1 [Example 347, (2Z)-6-Hydroxy-2-({5-methoxy-2-methyl-1-[2-(4-methylpiperazin-1-yl)ethyl]-1H-indol-3-yl}methylene)-7-methyl-1-benzofuran-3(2H)-one]	408	8670	> 4000
COc1ccc2c(c1)c(/C=C1\Oc3cc(O)c(Br)cc3C1=O)c(C)n2CCCN(C)C [Example 350, (2Z)-5-Bromo-2-({1-[3-(dimethylamino)propyl]-5-methoxy-2-methyl-1H-indol-3-yl}methylene)-6-hydroxy-1-benzofuran-3(2H)-one]	114	6870	> 20000
COc1ccc2c(c1)c(/C=C1\Oc3cc(O)c(F)cc3C1=O)c(C)n2CCCN(C)C [Example 352, (2Z)-2-({1-[3-(Dimethylamino)propyl]-5-methoxy-2-methyl-1H-indol-3-yl}methylene)-5-fluoro-6-hydroxy-1-benzofuran-3(2H)-one]	116	3930	> 800
COc1ccc2c(c1)c(/C=C1\Oc3c(ccc(O)c3Cl)C1=O)c(C)n2CCCN(C)C [Example 361, (2Z)-7-Chloro-2-({1-[3-(dimethylamino)propyl]-5-methoxy-2-methyl-1H-indol-3-yl}methylene)-6-hydroxy-1-benzofuran-3(2H)-one]	306	3440	> 800
